Test system: progenitor stem cells in the subgranular zone (SGZ) of the hippocampus
Assay: BrdU immunostaining, cell proliferation in hippocampal SGZ after chronic antidepressant
Format: in vivo, rat
Settings: P<0.01; for number of proliferating (BrdU-positive) cells in the SGZ compared with saline-treated control rats: FIG. 1A, chronic administration; for increase in the proliferation rate of progenitor stem cells in the SGZ: versus saline controls, 2 week systemic administration, BrdU twice a day for 4 days, n=5
Procedure: Antidepressant treatment and BrdU dosing. Dosing of adult male Sprague Dawley rats was performed as described above for 14 days (n=10 rats per group). To evaluate the effect of chronic antidepressant treatment on proliferation of progenitor stem cells, 24 hours after the last antidepressant injection, rats were administered BrdU (Sigma, St. Louis, Mo.) (50 mg/kg rig ip injection twice a day) for 4 days prior to euthanesia. To evaluate the effect of chronic antidepressant treatment on survival of progenitor stem cells, a sub-group of rats were allowed to live for 4 weeks after BrdU injection. All rats were perfused through the ascending aorta with 50 ml of 0.9% saline, followed by 400 ml of freshly prepared 4% paraformaldehyde in PBS (pH 7.5). After 30-60 minutes post-perfusion, rat brains were removed and postfixed in 4% paraformaldehyde in PBS overnight, followed by immersion in 30% sucrose/PBS solution for 48-72 hours at 4° C. Brains were rapidly frozen on dry-ice and stored at −80° C. Brain sectioning and staining for BrdU immunoreactivity were performed as previously described by Malberg et al. (2000). Briefly, serial coronal sections of each brain were cut (35 μm thickness) through the entire hippocampus (stereotaxic plates 26-40 according to Paxinos, Watson and Emson, 1980) using a freezing microtome. Every sixth section throughout the hippocampus was processed for BrdU staining. Free-floating sections were maintained in 100 mM PBS (about 100 sections per brain). DNA denaturation of the sections was performed as follows: sections were treated with 50% formamide/50% 2×SSC (0.3 M NaCl/0.03 M sodium citrate) for 2 hours at 65° C., rinsed in PBS (2 times for 5 minutes at room temperature), incubated with 2 N HCl for 30 minutes, followed by 0.1 M boric acid buffer (pH 8.5) for 10 minutes and a final rinse in PBS. For BrdU immunostaining, sections were incubated with 3% H2O2 in PBS for 30 minutes, rinsed in PBS and blocked with 3% normal horse serum in 0.01% TritonX-100 for 30 minutes. […] All BrdU labeled cells in the subgranular zone (SGZ) were counted in each section by an experimenter blinded to the study code. […] The total number of BrdU labeled cells per section were determined and multiplied by 12 to obtain the total number of cells per dentate gyrus. […]
In vivo studies were performed to measure the effects of antidepressant drug treatment on adult hippocampal neurogenesis by immunological methods. […] The BrdU immunostaining and quantitative results indicated a significant increase (˜33%) in the proliferation rate of progenitor stem cells in the subgranular zone (SGZ) of the hippocampus for both venlafaxine (P<0.01; n=5) and fluoxetine (P<0.01; n=5) versus saline controls. […]

Compound: CNCCC(Oc1ccc(C(F)(F)F)cc1)c1ccccc1 (stereo not shown) [Fluoxetine, fluoxetine]
- number of proliferating (BrdU-positive) cells in the SGZ compared with saline-treated control rats: increased the number of proliferating cells in the SGZ
- increase in the proliferation rate of progenitor stem cells in the SGZ: ~33%

Compound: COc1ccc(C(CN(C)C)C2(O)CCCCC2)cc1 (stereo not shown) [Venlafaxine, venlafaxine]
- number of proliferating (BrdU-positive) cells in the SGZ compared with saline-treated control rats: increased the number of proliferating cells in the SGZ
- increase in the proliferation rate of progenitor stem cells in the SGZ: ~33%
